“And” between values parts separate entries of the source, which are not always exact repeats. Equal values may be shown once.
How the values were obtained:
[1] = tested on: MRC-5 (human embryonic lung fibroblast) cells; assay: Toxicity testing: neutral red uptake (NRU) assay, inherent (dark) toxicity; details: 0.01% (v/v), positive control
Description: Control cells were incubated in standard cell culture medium.

[2] = tested on: human epithelial squamous cell carcinoma cells (A431); assay: PpIX fluorescence after varying incubation periods (2, 3 or 4 hours); details: for PpIX fluorescence: A431 cells, individual replicates
Description: (§1) Briefly, cells were seeded at 2×10^4 cells per well in a 96 well plate and left to adhere overnight. Test solutions were prepared on the day of the assay and applied to the cells. The level of PpIX produced was monitored using a multi-well fluorescent plate reader with a 400 (±30) nm excitation filter and a 645 (±40) nm emission filter, with the level of fluorescence produced being directly proportional to the level of PpIX present. Readings were taken hourly for 6 hours and were conducted under low light conditions to reduce photobleaching of PpIX.

[3] = tested on: human epithelial squamous cell carcinoma cells (A431); assay: Cell viability (NRU assay) after irradiation with varying incubation periods (2, 3 or 4 hours); type: cell-based; details: A431 cells, then red light 37 J/cm^2, NRU assay, individual replicates
Description: Neutral red is an inert dye actively taken up and stored by viable (living) cells, an action which is unable to be performed by non-viable cells, therefore the level of neutral red taken up is directly proportional to the number of viable cells present following a given exposure. Following uptake of the dye, cells are lysed and the level of neutral red quantified using a plate reader.
After the relevant incubation period, the cells were irradiated with red light (37 J/cm^2; 635±2 nm; Aktilite, Galderma, UK).

[4] = tested on: human epithelial squamous cell carcinoma cells (A431); assay: PDT efficacy: cell viability (NRU assay) following irradiation; type: cell-based; details: 4 h dark incubation, red light 37 J/cm^2, normalised to blank control
Description: (§2) To assess the effect of AP2-18 (8) on PpIX-induced PDT efficacy, the same three cell types were exposed to equimolar concentrations of ALA, ALA and CP94 (3), MAL, MAL and CP94 (3), and AP2-18 (8) (as described previously) and incubated in the dark for 4 hours. The level of PpIX accumulation was then quantified as before, prior to irradiation with red light (37 J/cm^2; 635±2 nm; Aktilite, Galderma, UK).

[5] = tested on: human dermal fibroblasts (84BR); assay: as above
Description: as §2

[6] = tested on: human glioblastoma cells (U87MG); assay: as above; type: cell-based; details: 500 μM (combinations: 500 μM each), 4 h dark incubation, red light 37 J/cm^2, normalised to blank control
Description: as §2

[7] = tested on: human epithelial squamous cell carcinoma cells (A431); assay: PpIX fluorescence accumulation; details: A431 cells;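 also: PpIX fluorescence accumulating inside A431 cells, read under dim light to limit photobleaching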
Description: as §1
These were tested alongside equimolar concentrations of ALA, ALA and CP94 (3), MAL, and MAL and CP94 (3), with all test compounds being investigated in human dermal fibroblasts (84BR; FIGS. 2A and 2B), human epithelial squamous cell carcinoma cells (A431; FIGS. 3A and 3B) and human glioblastoma cells (U87MG; FIGS. 4A and 4B).

[8] = 500 μM (each drug), incubation time 2 hours
[9] = 500 μM (each drug), incubation time 3 hours
[10] = 500 μM (each drug), incubation time 4 hours
[11] = 1000 μM (each drug), incubation time 2 hours
[12] = 1000 μM (each drug), incubation time 3 hours
[13] = 1000 μM (each drug), incubation time 4 hours
[14] = 250 μM (each drug), incubation time 2 hours, 250 µM
[15] = 250 μM (each drug), incubation time 3 hours, 250 µM
[16] = 250 μM (each drug), incubation time 4 hours, 250 µM
[17] = 500 μM (each drug), incubation time 2 hours, 500 µM
[18] = 500 μM (each drug), incubation time 3 hours, 500 µM
[19] = 500 μM (each drug), incubation time 4 hours, 500 µM
[20] = 1000 μM (each drug), incubation time 2 hours, 1000 µM
[21] = 1000 μM (each drug), incubation time 3 hours, 1000 µM
[22] = 1000 μM (each drug), incubation time 4 hours, 1000 µM

Row | Structure (SMILES) | PpIX fluorescence [2, 8] | PpIX fluorescence [2, 9] | PpIX fluorescence [2, 10] | PpIX fluorescence [2, 11] | PpIX fluorescence [2, 12] | PpIX fluorescence [2, 13] | cell viability [3, 14] | cell viability [3, 15] | cell viability [3, 16] | cell viability [3, 17] | cell viability [3, 18] | cell viability [3, 19] | cell viability [3, 20] | cell viability [3, 21] | cell viability [3, 22] | other results
1 | OO [H2O2, hydrogen peroxide] | – | – | – | – | – | – | – | – | – | – | – | – | – | – | – | cell viability by NRU [1]: significant reduction in cell viability
2 | COC(=O)CCC(=O)CN [MAL, methyl aminolevulinate] | −7.33 and 4.67 and −5.67 (2×) and −7.67 and 8.67 and −2.33 and 1.67 and 21 | −3.67 and −6.67 and 5.33 and −2.67 (2×) and 0.33 and 7.67 and −2.33 and 1.67 | −4.33 and −7.33 and 3.67 (2×) and 0.67 and 1.67 and 9 and 0 and 2 | 28 and 21 and 9.67 and 10.67 and 11.67 and −3.667 and 0.3333 and −8.333 and 51 | 45 and 50 and 42 and 22.67 and 25.67 and 20.67 and −3.333 and 0.6667 and −10.3333 | 70 and 74 and 64 and 34.33 and 39.33 and 30.33 and −2 and 4 and −8.333 | 78.63 and 100.9237 and 89.58 and 117.6227 and 107.2209 and 106.7755 and 45.7309 and 63.26 and 57.86 | 92.9 and 73.67 and 65.45 and 62.6519 and 51.74 and 54.37 and 33.36 and 40.45 and 63.31 and 38.2134 and 54.71 and 47.85 | 90.46 and 107.8629 and 109.4385 and 93.64 and 106.3667 and 111.1665 and 115.1445 and 124.4547 | 103.8357 and 110.62 and 117.5455 and 82.92 and 108.8432 and 82.89 and 99.5 and 114.8824 and 75.71 | 40.78 and 47.71 and 49.73 and 71.71 and 76.89 and 81.87 and 74.41 and 55.25 and 104.0986 and 49.38 and 75.04 and 67.4 | 90.24 and 110.2301 and 98.69 and 113.2846 and 104.0869 and 74.42 and 104.4856 and 97.36 and 135.6405 | 113.344 and 113.9162 and 113.1911 and 108.366 and 113.6783 and 85.84 and 45.89 and 39.15 and 53.82 | 93.27 and 84.83 and 88.71 and 39.35 and 38.5 and 43.01 and 59.91 and 53.88 and 52.9157 and 75.55 and 92.95 and 90.52 | 91.78 and 85.804 and 110.3323 and 138.7061 and 132.5587 and 155.8802 and 165.2883 and 91.73 and 106.1163 | cell viability following irradiation ([4]; 250 μM (combinations: 250 μM each)): 90.46% and 107.8629% and 109.4385% and 93.64% and 106.3667%; cell viability following irradiation ([4]; 500 μM (combinations: 500 μM each)): 90.24% and 110.2301% and 98.69% and 113.2846% and 104.0869% and 74.42%; viability at 250 µM ([4]; Homo sapiens, A-431, light or radiation study, 4 h, 250 μM (combinations: 250 μM each)): 110%; viability at 500 µM ([5]; Homo sapiens, Fibroblast, light or radiation study, 4 h, read-out: cell viability following irradiation, 84BR, 500 μM, 4 hours in the dark, red light 37 J/cm^2, NRU, normalised against blank control cells): 80.9%; viability at 1000 µM ([5]; Homo sapiens, Fibroblast, light or radiation study, 4 h, read-out: cell viability following irradiation, 84BR, 1000 μM, 4 hours in the dark, red light 37 J/cm^2, NRU, normalised against blank control cells): 97.3%; cell viability following irradiation [6]: 83.8% and 72.46% and 73.96% and 78.24% and 80.7%; viability at 500 µM ([6]; Homo sapiens, U-87 MG, light or radiation study, 4 h): 81.6%
3 | CCc1c(O)c(O)cc[n+]1CC.[Cl-] [CP94] | – | – | – | – | – | – | – | – | – | – | – | – | – | – | – | effect of iron chelator on PpIX levels ([2]; A431, added to the ALA or MAL incubation period): improved PpIX levels; effect of iron chelator on PDT effect of ALA and MAL ([5]; 84BR, added to ALA or MAL): improved the PDT effect of both ALA and MAL in a concentration dependent manner
4 | NCC(=O)CCC(=O)O [ALA, aminolevulinic acid] | −3.67 and −1.67 and −2.67 and 15.33 and 12.33 and 19.33 and 3.667 and 0.6667 and 5 | 7 and 9 and 6 and 27 and 24 and 32 and 2.667 (2×) and 4.667 | 22.67 and 25.67 and 27.67 and 38 and 36 and 43 and 5 and 4 and 6.667 | 1.33 and 9.33 and 14.33 and 12.33 and 15.33 and 16.33 and 8.333 and 6.333 and 9.667 | 14.33 and 25.33 and 26.33 and 27.33 and 28.33 and 32.33 and 12.33 and 10.33 and 9.333 | 32.33 and 45.33 (2×) and 43.33 and 38.33 (2×) and 12.33 (2×) and 12 | 104.2825 and 103.9063 and 123.5695 and 112.4377 and 117.6227 and 97.71 and 44.14 and 34.7079 and 50.73 | 124.0654 and 135.6267 and 95.31 and 55.77 and 55.32 and 62.02 and 56.05 and 85.67 and 55.08 and 120.1384 and 57.18 and 77.31 | 82.01 and 64.97 and 20.14 and 125.0307 and 150.1618 and 127.1037 and 6.313 and 9.566 and 15.91 | 99.84 and 113.3557 and 112.7404 and 95.2285 and 69.94 and 82.25 and 65.56 and 62.54 and 64.53 | 118.05 and 77.38 and 69.99 and 77.18 and 78.53 and 70.11 and 42.15 and 44.3852 and 60.85 and 274.4678 and 51.1 and 55.1 | 67.69 and 28.73 and 8.056 and 111.2275 and 105.7573 and 29.3785 and 108.0828 and 59.78 and 39.7 | 87.3 and 106.5283 and 118.4391 and 110.6882 and 113.0739 and 122.8714 and 119.6405 and 111.0759 and 80.15 | 146.327 and 79.29 and 120.4428 and 43.82 and 38.85 and 34.8 and 39.79 and 27.42 and 54.75 and 57.2548 and 73.63 and 60.04 | 59.3 and 27.29 and 6.353 and 109.5082 and 86.85 and 18.6677 and 42.58 and 43.47 and 28.34 | PpIX accumulation ([7]; 500 μM (each component), exposure time 4 hours): 22.67 and 25.67 and 27.67 and 38 and 36 and 43; PpIX accumulation ([7]; 500 μM (each component), exposure time 5 hours): 39.67 and 42.67 and 45.67 and 49.33 and 51.33; PpIX accumulation ([7]; 500 μM (each component), exposure time 6 hours): 52.33 and 55.33 and 61.33 and 61.67 and 62.67; PpIX accumulation ([7]; 1000 μM (each component), exposure time 4 hours): 32.33 and 45.33 and 43.33 and 38.33; PpIX accumulation ([7]; 1000 μM (each component), exposure time 5 hours): 50.67 and 63.67 and 60.67 and 51.67 and 54.67 and 57.67; PpIX accumulation ([7]; 1000 μM (each component), exposure time 6 hours): 63 and 79 and 72 and 65 and 68 and 75

— patent US9346758B2, “Pyridinone compounds for use in photodynamic therapy” (UNIVERSITY OF EXETER, priority 2012, dated 2016)
